Among the test systems are BT-549; HCT-116; HL-60; HOP-62; HT-29; Hs-578T; IGROV-1; MCF7; OVCAR-3; PC-3; RXF 393; SF-268; SF-295; SK-MEL-2; SK-MEL-5; TK-10; U-251; K562; SNB-19.
Holding throughout (assay): inhibition of tumour cell growth, NCI panel, 48 h

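Cultured in 96-well plates, cells were exposed to test compound for 48 hours across five concentrations. Here, GI50 denotes the concentration required for 50% inhibition of growth.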 Calls of active or inactive are those of the source. No stated cut-off is given here; in the data, active = GI50 up to about 1.1 µM and inactive = higher.

Regarding `NNc1[nH]c(=S)[nH]c1C(N)=O`, the GI50 in the assay with BT-549, in the assay with HCT-116, in the assay with HL-60, with HOP-62, in the assay with HT-29 and with Hs-578T was > 100 µM (inactive) throughout. Further, the GI50 in the assay with IGROV-1, in the assay with MCF7, with OVCAR-3, in the assay on PC-3, in the assay with RXF 393 and in the assay on SF-268 was > 100 µM (inactive) in each case. The GI50 in the assay with SF-295, with SK-MEL-2, in the assay with SK-MEL-5, in the assay with TK-10 and in the assay on U-251 was > 100 µM (inactive) in each case.

Consider `c1ccc(COC2C3COC(O3)C(OCc3ccccc3)C2OCc2ccccc2)cc1` (stereo not drawn), for which the GI50 was > 100 µM (inactive) with BT-549; 33.9 µM (inactive) with HCT-116; 13.2 µM (inactive) in the assay with HL-60; 71.3 µM (inactive) with HOP-62; 31.4 µM (inactive) with Hs-578T; 79.1 µM (inactive) in the assay on IGROV-1. Further, the GI50 with K562 was 27.9 µM (inactive); with MCF7 it was 39.1 µM (inactive); with OVCAR-3, 57.8 µM (inactive); in the assay on PC-3, 35.2 µM (inactive); in the assay with RXF 393 it was 45.4 µM (inactive); in the assay on SF-268, > 100 µM (inactive). Besides, the GI50 is 94.4 µM (inactive) in the assay on SF-295; 54.3 µM (inactive) with SK-MEL-2; 34.4 µM (inactive) in the assay on SK-MEL-5; 27.3 µM (inactive) with SNB-19; 70.5 µM (inactive) in the assay with TK-10; > 100 µM (inactive) in the assay with U-251.

In the case of `Cc1cn(C2CC(O)C(Cn3nncc3Cn3cnc4c(N)ncnc43)O2)c(=O)[nH]c1=O` (stereo not drawn), the GI50 in the assay on BT-549, in the assay with HCT-116, in the assay on HL-60, in the assay on HOP-62, in the assay with Hs-578T and with IGROV-1 was > 100 µM (inactive) throughout. The GI50 in the assay with MCF7, with OVCAR-3, with PC-3, in the assay with RXF 393, in the assay on SF-268 and in the assay on SF-295 was > 100 µM (inactive) throughout. Moreover, the GI50 with SK-MEL-2, in the assay on SK-MEL-5, in the assay with SNB-19, in the assay with TK-10 and in the assay on U-251 was > 100 µM (inactive) throughout.

Consider `Cc1cn(C2CC(n3cc(Cn4cc(I)c(=O)[nH]c4=O)nn3)C(CO)O2)c(=O)[nH]c1=O` (stereo not drawn), for which the GI50 in the assay with BT-549 is > 100 µM (inactive); with HCT-116, > 100 µM (inactive); with HL-60, 0.0119 µM (active); in the assay on HOP-62 it was > 100 µM (inactive); in the assay with Hs-578T, > 100 µM (inactive); in the assay with MCF7 it was > 100 µM (inactive). Besides, the GI50 in the assay on OVCAR-3, in the assay with PC-3, in the assay with RXF 393, in the assay with SF-268, in the assay on SF-295 and with SK-MEL-2 was > 100 µM (inactive) each time. The GI50 in the assay with SK-MEL-5, with SNB-19, with TK-10 and with U-251 was > 100 µM (inactive) throughout.
